Measurements: ChEMBL document CHEMBL1201862, “PubChem BioAssay data set” (2004)
Blank lines part the entries; values can stand above or below the molecule they belong to. Active and inactive are the calls of the source. Unless noted, no cut-off for these calls is given here.

Tests used:
[1] = target: Voltage-dependent T-type calcium channel subunit alpha-1H (Homo sapiens, UniProt O95180); test: human CACNA1H calcium influx blockade – cell-based, synthetic library set 1, calcium flux (AID 493022); assay type: functional
[2] = target: G-protein coupled receptor 35 (Homo sapiens, UniProt Q9HC97); test: SAR analysis of Antagonists of the GPR35 Receptor using an Image-Based Assay - Set 5. [Related pubchem assays (depositor defined):AID2058, AID2079]; assay type: functional
[3] = target: G-protein coupled receptor 55 (Homo sapiens, UniProt Q9Y2T6); test: SAR Analysis of Selective Antagonists of GPR55 using an Image-Based Assay - Set 3. [Related pubchem assays (depositor defined):AID2058, AID2079]; assay type: functional
[4] = target: T1, Hepatocyte nuclear factor 4-alpha (Homo sapiens, UniProt P41235); assay type: functional, cell-based;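 note: biochemical luminescence-based dose-response counterscreen measuring inhibition of HNF4 dimerization, run alongside a screen for blockers of ABHD5–perilipin-5 interaction; split luciferase complementation of HNF4 fusion proteins in cell lysate measuring dimerization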
T1 sequence (P41235 whole entry): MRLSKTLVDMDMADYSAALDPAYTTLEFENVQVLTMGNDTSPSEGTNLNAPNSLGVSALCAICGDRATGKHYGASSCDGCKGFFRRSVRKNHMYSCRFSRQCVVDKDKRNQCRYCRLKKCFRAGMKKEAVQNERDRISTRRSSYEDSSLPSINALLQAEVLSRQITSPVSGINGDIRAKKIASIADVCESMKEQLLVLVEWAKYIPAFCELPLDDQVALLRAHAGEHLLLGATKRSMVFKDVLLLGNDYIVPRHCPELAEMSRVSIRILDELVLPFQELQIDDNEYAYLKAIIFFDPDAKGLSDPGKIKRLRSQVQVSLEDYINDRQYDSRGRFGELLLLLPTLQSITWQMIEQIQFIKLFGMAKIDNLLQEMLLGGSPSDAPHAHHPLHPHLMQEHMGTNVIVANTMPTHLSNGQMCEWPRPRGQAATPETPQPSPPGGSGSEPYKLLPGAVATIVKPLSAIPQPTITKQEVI

[5] = target: Genome polyprotein (dengue virus type 2, UniProt P29990); test: flavivirus cap methylation enzyme inhibition – biochemical, confirmation dose response, primary screen (AID 588689); assay type: functional
[6] = target: Glucose-6-phosphate 1-dehydrogenase (Homo sapiens, UniProt P11413); test: inhibition of Homo sapiens G6PD, dose series – biochemical, fluorescence, selectivity assay for P. falciparum G6PD inhibitor project, dose response (AID 504792); assay type: functional
[7] = target: T2, Hexokinase HKDC1 (Homo sapiens, UniProt Q2TB90); test: inhibition of HKDC1 glucose phosphorylation – biochemical, W721R variant, dose response (AID 504729); assay type: functional
T2 sequence (Q2TB90 whole entry): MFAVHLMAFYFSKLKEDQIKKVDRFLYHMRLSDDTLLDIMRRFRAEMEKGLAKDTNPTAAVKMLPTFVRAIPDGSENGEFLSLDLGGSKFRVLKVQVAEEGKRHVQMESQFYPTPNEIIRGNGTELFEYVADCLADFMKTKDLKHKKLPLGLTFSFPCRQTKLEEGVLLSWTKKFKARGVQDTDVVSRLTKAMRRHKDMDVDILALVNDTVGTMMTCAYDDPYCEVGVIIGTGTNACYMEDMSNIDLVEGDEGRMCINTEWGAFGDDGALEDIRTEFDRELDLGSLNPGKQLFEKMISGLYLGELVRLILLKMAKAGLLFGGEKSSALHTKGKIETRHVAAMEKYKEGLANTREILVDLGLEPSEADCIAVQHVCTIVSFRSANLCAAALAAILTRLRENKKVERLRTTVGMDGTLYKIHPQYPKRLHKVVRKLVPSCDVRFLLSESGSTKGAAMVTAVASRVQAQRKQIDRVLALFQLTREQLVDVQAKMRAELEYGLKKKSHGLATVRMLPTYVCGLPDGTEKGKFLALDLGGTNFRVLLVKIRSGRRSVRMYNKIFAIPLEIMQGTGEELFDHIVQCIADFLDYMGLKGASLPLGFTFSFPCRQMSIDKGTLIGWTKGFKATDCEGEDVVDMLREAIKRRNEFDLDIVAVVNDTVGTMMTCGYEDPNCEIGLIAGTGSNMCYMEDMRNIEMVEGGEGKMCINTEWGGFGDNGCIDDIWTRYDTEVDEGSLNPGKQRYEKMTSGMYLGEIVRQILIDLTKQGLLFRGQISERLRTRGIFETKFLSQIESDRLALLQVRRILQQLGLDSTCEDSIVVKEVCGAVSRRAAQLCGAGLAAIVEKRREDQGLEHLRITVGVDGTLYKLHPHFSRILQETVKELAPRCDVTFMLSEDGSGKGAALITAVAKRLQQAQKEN

[8] = target: Beta-galactosidase (Escherichia coli, UniProt Q8VNN2); test: detection-enzyme interference by beta-gal modulators – biochemical, E. coli enzyme, set 3, artefact control for CCR6 antagonist project, dose response (AID 504712); assay type: functional
[9] = target: Sphingosine 1-phosphate receptor 4 (Homo sapiens, UniProt O95977); test: potency of S1P4 activators – cell-based, fluorescence, synthesized compounds, late-stage follow-up (AID 463107); assay type: functional
Sphingosine 1-phosphate receptor 4, sequence (O95977 whole entry): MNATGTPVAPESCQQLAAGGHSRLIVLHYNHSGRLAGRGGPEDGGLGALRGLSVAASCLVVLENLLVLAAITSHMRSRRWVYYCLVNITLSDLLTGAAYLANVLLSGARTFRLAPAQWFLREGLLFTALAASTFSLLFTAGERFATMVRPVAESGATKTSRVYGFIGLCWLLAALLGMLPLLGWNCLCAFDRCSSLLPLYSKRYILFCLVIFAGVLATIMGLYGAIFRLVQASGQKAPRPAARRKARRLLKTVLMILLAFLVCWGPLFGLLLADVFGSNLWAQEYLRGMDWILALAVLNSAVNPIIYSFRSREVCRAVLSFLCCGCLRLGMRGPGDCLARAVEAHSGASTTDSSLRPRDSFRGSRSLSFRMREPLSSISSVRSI

Glucose-6-phosphate 1-dehydrogenase, sequence (P11413 whole entry): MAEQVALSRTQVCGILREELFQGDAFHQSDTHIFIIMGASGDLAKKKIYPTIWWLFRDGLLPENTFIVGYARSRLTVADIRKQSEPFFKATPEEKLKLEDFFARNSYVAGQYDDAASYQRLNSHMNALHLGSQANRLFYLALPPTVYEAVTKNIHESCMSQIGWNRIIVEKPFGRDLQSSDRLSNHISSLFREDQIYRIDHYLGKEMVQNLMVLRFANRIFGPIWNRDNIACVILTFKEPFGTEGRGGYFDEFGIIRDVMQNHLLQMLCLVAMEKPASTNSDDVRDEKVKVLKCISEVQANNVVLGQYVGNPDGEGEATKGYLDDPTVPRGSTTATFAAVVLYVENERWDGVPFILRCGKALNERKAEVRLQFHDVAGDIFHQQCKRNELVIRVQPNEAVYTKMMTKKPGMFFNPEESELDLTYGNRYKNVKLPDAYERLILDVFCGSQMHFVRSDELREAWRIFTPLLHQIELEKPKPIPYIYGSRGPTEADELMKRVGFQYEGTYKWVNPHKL
Voltage-dependent T-type calcium channel subunit alpha-1H, sequence (O95180 whole entry): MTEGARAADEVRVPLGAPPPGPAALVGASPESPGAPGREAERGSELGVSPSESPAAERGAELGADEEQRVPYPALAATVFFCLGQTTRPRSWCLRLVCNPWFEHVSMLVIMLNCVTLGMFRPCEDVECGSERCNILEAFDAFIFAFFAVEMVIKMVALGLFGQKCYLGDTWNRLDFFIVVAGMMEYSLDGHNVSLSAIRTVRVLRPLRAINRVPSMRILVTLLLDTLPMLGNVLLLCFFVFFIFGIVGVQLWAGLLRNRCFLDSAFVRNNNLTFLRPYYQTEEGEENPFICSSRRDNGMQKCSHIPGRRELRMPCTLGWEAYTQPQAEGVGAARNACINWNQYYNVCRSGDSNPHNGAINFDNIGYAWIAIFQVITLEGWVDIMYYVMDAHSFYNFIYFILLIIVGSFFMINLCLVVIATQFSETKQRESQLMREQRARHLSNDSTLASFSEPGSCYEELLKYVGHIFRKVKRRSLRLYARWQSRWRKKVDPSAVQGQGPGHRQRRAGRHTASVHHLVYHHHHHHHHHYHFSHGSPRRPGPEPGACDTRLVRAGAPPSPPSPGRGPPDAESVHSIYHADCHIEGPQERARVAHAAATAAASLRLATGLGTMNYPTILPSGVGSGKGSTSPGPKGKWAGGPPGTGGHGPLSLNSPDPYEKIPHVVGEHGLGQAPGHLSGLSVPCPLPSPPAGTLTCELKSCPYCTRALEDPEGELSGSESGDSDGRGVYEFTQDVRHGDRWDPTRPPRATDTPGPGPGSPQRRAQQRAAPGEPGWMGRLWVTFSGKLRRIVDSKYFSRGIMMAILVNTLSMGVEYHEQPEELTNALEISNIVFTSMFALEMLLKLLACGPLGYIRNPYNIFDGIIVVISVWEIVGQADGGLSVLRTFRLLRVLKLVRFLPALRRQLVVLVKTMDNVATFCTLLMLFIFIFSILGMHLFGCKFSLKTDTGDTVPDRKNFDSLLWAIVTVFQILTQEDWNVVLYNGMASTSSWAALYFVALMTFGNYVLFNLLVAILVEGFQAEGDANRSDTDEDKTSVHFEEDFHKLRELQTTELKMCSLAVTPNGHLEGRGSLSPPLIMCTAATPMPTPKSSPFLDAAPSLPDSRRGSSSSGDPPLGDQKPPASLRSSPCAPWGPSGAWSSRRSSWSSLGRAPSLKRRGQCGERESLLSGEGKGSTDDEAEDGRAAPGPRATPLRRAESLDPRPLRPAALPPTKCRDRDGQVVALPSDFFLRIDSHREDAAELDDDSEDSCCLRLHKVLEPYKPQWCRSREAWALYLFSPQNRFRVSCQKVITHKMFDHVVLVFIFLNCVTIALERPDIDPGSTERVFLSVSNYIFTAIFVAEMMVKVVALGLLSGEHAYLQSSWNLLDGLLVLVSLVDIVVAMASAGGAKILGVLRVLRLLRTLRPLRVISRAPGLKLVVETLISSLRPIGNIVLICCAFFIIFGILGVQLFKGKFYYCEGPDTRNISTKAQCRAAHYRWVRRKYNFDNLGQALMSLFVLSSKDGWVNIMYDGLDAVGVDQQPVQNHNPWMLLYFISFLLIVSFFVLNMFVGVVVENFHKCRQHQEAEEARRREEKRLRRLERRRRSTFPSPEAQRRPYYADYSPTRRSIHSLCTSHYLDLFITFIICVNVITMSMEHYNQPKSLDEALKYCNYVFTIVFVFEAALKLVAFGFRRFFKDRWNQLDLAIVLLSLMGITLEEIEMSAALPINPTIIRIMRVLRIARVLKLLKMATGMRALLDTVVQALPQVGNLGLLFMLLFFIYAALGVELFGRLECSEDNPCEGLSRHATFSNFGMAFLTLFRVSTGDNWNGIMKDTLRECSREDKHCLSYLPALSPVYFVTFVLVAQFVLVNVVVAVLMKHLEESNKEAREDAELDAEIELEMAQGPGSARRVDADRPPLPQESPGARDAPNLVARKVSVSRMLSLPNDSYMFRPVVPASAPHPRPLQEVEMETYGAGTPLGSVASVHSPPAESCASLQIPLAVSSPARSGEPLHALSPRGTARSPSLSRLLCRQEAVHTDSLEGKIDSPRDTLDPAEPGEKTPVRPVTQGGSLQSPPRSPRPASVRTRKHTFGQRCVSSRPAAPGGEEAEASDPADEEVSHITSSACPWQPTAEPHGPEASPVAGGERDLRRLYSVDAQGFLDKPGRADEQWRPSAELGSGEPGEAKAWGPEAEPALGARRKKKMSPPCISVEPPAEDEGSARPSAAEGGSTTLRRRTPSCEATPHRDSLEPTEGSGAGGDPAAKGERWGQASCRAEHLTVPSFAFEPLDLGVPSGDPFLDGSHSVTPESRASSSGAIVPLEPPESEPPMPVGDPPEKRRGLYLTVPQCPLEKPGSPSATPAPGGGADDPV
G-protein coupled receptor 55, sequence (Q9Y2T6 whole entry, the tested form may be a part): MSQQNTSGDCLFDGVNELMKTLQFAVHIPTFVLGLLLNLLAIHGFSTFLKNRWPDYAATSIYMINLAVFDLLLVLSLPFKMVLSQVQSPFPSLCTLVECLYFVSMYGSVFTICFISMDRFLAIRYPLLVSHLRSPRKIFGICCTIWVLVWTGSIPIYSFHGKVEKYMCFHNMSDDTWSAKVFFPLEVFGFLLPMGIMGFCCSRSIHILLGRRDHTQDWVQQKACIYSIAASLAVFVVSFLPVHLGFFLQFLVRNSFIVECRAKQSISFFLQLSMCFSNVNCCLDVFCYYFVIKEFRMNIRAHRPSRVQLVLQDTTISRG
Genome polyprotein, sequence (P29990 2492-3391 limits assumed): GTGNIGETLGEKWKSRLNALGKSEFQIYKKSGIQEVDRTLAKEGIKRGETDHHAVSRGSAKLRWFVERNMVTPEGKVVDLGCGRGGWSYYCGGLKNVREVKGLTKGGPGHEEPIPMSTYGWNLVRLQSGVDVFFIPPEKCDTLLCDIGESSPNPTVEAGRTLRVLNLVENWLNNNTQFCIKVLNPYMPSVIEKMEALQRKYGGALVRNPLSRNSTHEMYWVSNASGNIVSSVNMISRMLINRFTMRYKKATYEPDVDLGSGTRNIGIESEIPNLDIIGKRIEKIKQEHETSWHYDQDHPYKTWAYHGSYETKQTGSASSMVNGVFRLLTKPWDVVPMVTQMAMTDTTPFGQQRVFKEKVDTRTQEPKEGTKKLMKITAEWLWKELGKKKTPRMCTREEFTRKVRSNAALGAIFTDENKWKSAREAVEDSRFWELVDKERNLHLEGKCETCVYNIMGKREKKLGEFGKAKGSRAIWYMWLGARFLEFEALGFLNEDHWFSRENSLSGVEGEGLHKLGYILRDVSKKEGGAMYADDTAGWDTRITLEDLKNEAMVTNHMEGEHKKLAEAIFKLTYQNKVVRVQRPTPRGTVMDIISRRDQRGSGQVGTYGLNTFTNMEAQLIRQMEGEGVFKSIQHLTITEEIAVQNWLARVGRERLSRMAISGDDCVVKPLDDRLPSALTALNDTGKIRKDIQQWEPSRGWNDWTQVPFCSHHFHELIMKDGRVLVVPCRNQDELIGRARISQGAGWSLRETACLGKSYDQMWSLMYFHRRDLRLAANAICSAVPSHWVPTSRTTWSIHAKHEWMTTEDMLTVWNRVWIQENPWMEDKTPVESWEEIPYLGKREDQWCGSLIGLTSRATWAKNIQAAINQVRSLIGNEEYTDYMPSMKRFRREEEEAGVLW
G-protein coupled receptor 35, sequence (Q9HC97 whole entry): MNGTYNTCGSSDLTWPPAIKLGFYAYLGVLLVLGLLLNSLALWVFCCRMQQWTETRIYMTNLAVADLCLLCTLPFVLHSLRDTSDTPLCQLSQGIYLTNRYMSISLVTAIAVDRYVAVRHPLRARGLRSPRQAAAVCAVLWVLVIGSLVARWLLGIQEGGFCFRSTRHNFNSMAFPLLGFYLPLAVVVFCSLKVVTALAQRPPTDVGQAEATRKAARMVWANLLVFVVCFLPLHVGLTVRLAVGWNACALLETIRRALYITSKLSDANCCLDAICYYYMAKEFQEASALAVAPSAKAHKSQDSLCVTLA

EC50 [1]: 1.3 µM (active)
SMILES: Cc1ccc(-c2nnc(NC(=O)COc3ccccc3Cl)o2)cc1C

IC50 [2]: 4.6 µM (active) | IC50 [3]: > 32 µM (inactive)
SMILES: COC(=O)c1cnn(-c2ccc(Cl)cc2)c1/C=N/NC(N)=S

SMILES: CN(C)c1ccc(Cc2cc3c(O)ccc(O)c3cc(Cc3ccc(N(C)C)cc3)c2=O)cc1
IC50 [4]: 4.6 µM (active) | IC50 [5]: 44.1 µM (active) | IC50 [6]: 56.7 µM (inactive) | IC50 [7]: 10.9 µM (active) | IC50 [8]: > 66.6 µM (inactive)

EC50 [9]: > 50 µM (inactive)
SMILES: Cc1ccc(OCCCOc2ccc(Cl)cc2Cl)c([N+](=O)[O-])n1
